This note sets out measurements from US20250268429A1, “Fluid Dispenser With Automatic Fluid Composition Adjustment” (OP-HYGIENE IP GmbH, priority 2024, published 2025).

The subject of this assay is Bacillus subtilis spores. Kind of assay: in vitro killing of Bacillus subtilis spores by foam compositions (LOG reduction factor, CFU count). Type of assay: cell-based. To be noted: conclusion from Table 3. On the procedure:
The compositions of Foams 1 to 6 are the same as in Table 1. Foam 7 contained 70% isopropanol.
In the in vitro experiments summarized above, the following method was used: the bacterial culture was serially diluted (1 LOG); the tested foam was added to 50 μL of the diluted solution and stirred for 15 seconds; the resulting mixture was transferred to an agar plate and incubated for 24 hours before counting the bacterial colonies (CFUs). The LOG reduction factor was calculated as the LOG bacteria before treatment minus the LOG bacteria after treatment.

For the molecule `CC(C)O` [Isopropanol, isopropanol], the “effectiveness at killing Bacillus subtilis spores (in words)” value is “not effective”.
